Reference: patent US7462600B2, “Macrolides” (Pfizer Inc, priority 2004, dated 2008)
In brackets after ≈: the same amount, converted by molar mass.

Legend:
Type in all cases: cell-based
[1] = system: Streptococcus pyogenes 1079; test: MIC, microtiter broth dilution (NCCLS M100-S14), S. pyogenes 1079 (ermB); conditions: Streptococcus pyogenes 1079
Procedure, shortened: (§1)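 Panel strains, including macrolide-resistant isolates and their susceptible parents where available, are exposed to serial compound dilutions in microtiter trays. Growth inhibition is scored as MIC under NCCLS M100-S14 standards.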

[2] = system: Streptococcus pneumoniae 1016; test: MIC, microtiter broth dilution (NCCLS M100-S14), S. pneumoniae 1016 (susceptible); conditions: Streptococcus pneumoniae 1016
Procedure, shortened: as §1

[3] = system: Streptococcus pneumoniae 1095; conditions: Streptococcus pneumoniae 1095; microtiter broth dilution
Procedure, shortened: as §1

[4] = system: Streptococcus pneumoniae 1175; conditions: Streptococcus pneumoniae 1175; microtiter broth dilution
Procedure, shortened: as §1

[5] = system: Haemophilus influenzae 1218; test: MIC, microtiter broth dilution (NCCLS M100-S14), H. influenzae 1218 (susceptible); conditions: Haemophilus influenzae 1218
Procedure, shortened: as §1

CCC1OC(=O)C(C)C(=O)C(C)C(OC2OC(C)CC(N(C)C)C2O)C(C)(OC)CC(C)C(=O)C(C)C2N(C3CN(S(=O)(=O)c4cccc5nsnc45)C3)C(=O)OC12C (centres unmarked) [Example 3.06, 3-descladinosyl-11,12-dideoxy-6-O-methyl-3-oxo-12,11-(oxycarbonyl-(1-(benzo[1,2,5]thiadiazole-4-sulfonyl)-azetidin-3-yl)-imino)erythromycin A]
MIC S. pyogenes 1079 [1]: 1 µg/mL (≈ 1.15 µM)
MIC S. pneumo. 1016 [2]: <0.06 µg/mL
MIC S. pneumo. 1095 [3]: <0.06 µg/mL
MIC S. pneumo. 1175 [4]: <0.06 µg/mL
MIC H. influenzae 1218 [5]: 0.12 µg/mL (≈ 0.139 µM)

CCC1OC(=O)C(C)C(=O)C(C)C(OC2OC(C)CC(N(C)C)C2O)C(C)(OC)CC(C)C(=O)C(C)C2N(C3CN(S(=O)(=O)c4ccccc4F)C3)C(=O)OC12C (centres unmarked) [Example 3.07, 2-fluorobenzenesulfonyl]
MIC S. pyogenes 1079 [1]: 16 µg/mL (≈ 19.4 µM)
MIC S. pneumo. 1016 [2]: <0.06 µg/mL
MIC S. pneumo. 1095 [3]: <0.06 µg/mL
MIC S. pneumo. 1175 [4]: <0.06 µg/mL
MIC H. influenzae 1218 [5]: 0.5 µg/mL (≈ 0.605 µM)

CCC1OC(=O)C(C)C(=O)C(C)C(OC2OC(C)CC(N(C)C)C2O)C(C)(OC)CC(C)C(=O)C(C)C2N(C3CN(S(=O)(=O)c4cccc(F)c4)C3)C(=O)OC12C (centres unmarked) [Example 3.08, 3-fluorobenzenesulfonyl]
MIC S. pyogenes 1079 [1]: 16 µg/mL (≈ 19.4 µM)
MIC S. pneumo. 1016 [2]: <0.06 µg/mL
MIC S. pneumo. 1095 [3]: <0.06 µg/mL
MIC S. pneumo. 1175 [4]: <0.06 µg/mL
MIC H. influenzae 1218 [5]: 0.5 µg/mL (≈ 0.605 µM)

CCC1OC(=O)C(C)C(=O)C(C)C(OC2OC(C)CC(N(C)C)C2O)C(C)(OC)CC(C)C(=O)C(C)C2N(C3CN(S(=O)(=O)c4ccc(F)cc4)C3)C(=O)OC12C (centres unmarked) [Example 3.09, 4-fluorobenzenesulfonyl]
MIC S. pyogenes 1079 [1]: 16 µg/mL (≈ 19.4 µM)
MIC S. pneumo. 1016 [2]: <0.06 µg/mL
MIC S. pneumo. 1095 [3]: <0.06 µg/mL
MIC S. pneumo. 1175 [4]: 0.25 µg/mL (≈ 0.303 µM)
MIC H. influenzae 1218 [5]: 0.25 µg/mL (≈ 0.303 µM)

CCC1OC(=O)C(C)C(=O)C(C)C(OC2OC(C)CC(N(C)C)C2O)C(C)(OC)CC(C)C(=O)C(C)C2N(C3CN(S(=O)(=O)c4cccc(C#N)c4)C3)C(=O)OC12C (centres unmarked) [Example 3.10, 3-descladinosyl-11,12-dideoxy-6-O-methyl-3-oxo-12,11-(oxycarbonyl-(1-(3-cyanobenzenesulfonyl)-azetidin-3-yl)-imino)-erythromycin A]
MIC S. pyogenes 1079 [1]: 4 µg/mL (≈ 4.8 µM)
MIC S. pneumo. 1016 [2]: <0.06 µg/mL
MIC S. pneumo. 1095 [3]: <0.06 µg/mL
MIC S. pneumo. 1175 [4]: <0.06 µg/mL
MIC H. influenzae 1218 [5]: 0.25 µg/mL (≈ 0.3 µM)

CCC1OC(=O)C(C)C(=O)C(C)C(OC2OC(C)CC(N(C)C)C2O)C(C)(OC)CC(C)C(=O)C(C)C2N(C3CN(S(=O)(=O)c4ccc(C#N)cc4)C3)C(=O)OC12C (centres unmarked) [Example 3.11, 3-descladinosyl-11,12-dideoxy-6-O-methyl-3-oxo-12,11-(oxycarbonyl-(1-(4-cyanobenzenesulfonyl)-azetidin-3-yl)-imino)-erythromycin A]
MIC S. pyogenes 1079 [1]: 8 µg/mL (≈ 9.6 µM)
MIC S. pneumo. 1016 [2]: <0.06 µg/mL
MIC S. pneumo. 1095 [3]: <0.06 µg/mL
MIC S. pneumo. 1175 [4]: 0.5 µg/mL (≈ 0.6 µM)
MIC H. influenzae 1218 [5]: 0.25 µg/mL (≈ 0.3 µM)

CCC1OC(=O)C(C)C(=O)C(C)C(OC2OC(C)CC(N(C)C)C2O)C(C)(OC)CC(C)C(=O)C(C)C2N(C3CN(S(=O)(=O)c4cnn(-c5ccccc5)c4C)C3)C(=O)OC12C (centres unmarked) [Example 3.12, 5-methyl-1-phenyl-1H-pyrazole-4-sulfonyl]
MIC S. pyogenes 1079 [1]: 64 µg/mL (≈ 72.1 µM)
MIC S. pneumo. 1016 [2]: <0.06 µg/mL
MIC S. pneumo. 1095 [3]: 1 µg/mL (≈ 1.13 µM)
MIC S. pneumo. 1175 [4]: <0.06 µg/mL
MIC H. influenzae 1218 [5]: 4 µg/mL (≈ 4.5 µM)

CCC1OC(=O)C(C)C(=O)C(C)C(OC2OC(C)CC(N(C)C)C2O)C(C)(OC)CC(C)C(=O)C(C)C2N(C3CN(S(=O)(=O)c4ccc(-c5cnco5)cc4)C3)C(=O)OC12C (centres unmarked) [Example 3.13, 3-descladinosyl-11,12-dideoxy-6-O-methyl-3-oxo-12,11-(oxycarbonyl-(1-(4-(oxazol-5-yl)-benzenesulfonyl)-azetidin-3-yl)-imino)-erythromycin A]
MIC S. pyogenes 1079 [1]: 4 µg/mL (≈ 4.57 µM)
MIC S. pneumo. 1016 [2]: <0.06 µg/mL
MIC S. pneumo. 1095 [3]: 0.12 µg/mL (≈ 0.137 µM)
MIC S. pneumo. 1175 [4]: <0.06 µg/mL
MIC H. influenzae 1218 [5]: 0.25 µg/mL (≈ 0.286 µM)

CCC1OC(=O)C(C)C(=O)C(C)C(OC2OC(C)CC(N(C)C)C2O)C(C)(OC)CC(C)C(=O)C(C)C2N(C3CN(S(=O)(=O)c4ccc(-n5nc(C)c(=O)[nH]c5=O)cc4)C3)C(=O)OC12C (centres unmarked) [Example 3.14, 4-(4,5-dihydro-6-methyl-3,5-dioxo-1,2,4-triazin-2(3H)-yl)benzenesulfonyl]
MIC S. pyogenes 1079 [1]: >64.00 µg/mL
MIC S. pneumo. 1016 [2]: <0.06 µg/mL
MIC S. pneumo. 1095 [3]: 1 µg/mL (≈ 1.07 µM)
MIC S. pneumo. 1175 [4]: 1 µg/mL (≈ 1.07 µM)
MIC H. influenzae 1218 [5]: 1 µg/mL (≈ 1.07 µM)

CCC1OC(=O)C(C)C(=O)C(C)C(OC2OC(C)CC(N(C)C)C2O)C(C)(OC)CC(C)C(=O)C(C)C2N(C3CN(S(=O)(=O)c4cnc5ccccn45)C3)C(=O)OC12C (centres unmarked) [Example 3.15, 3-descladinosyl-11,12-dideoxy-6-O-methyl-3-oxo-12,11-(oxycarbonyl-(1-(H-imidazo[1,2-a]pyridine-3-sulfonyl)-azetidin-3-yl)-imino)-erythromycin A]
MIC S. pyogenes 1079 [1]: 1 µg/mL (≈ 1.18 µM)
MIC S. pneumo. 1016 [2]: <0.06 µg/mL
MIC S. pneumo. 1095 [3]: <0.06 µg/mL
MIC S. pneumo. 1175 [4]: <0.06 µg/mL
MIC H. influenzae 1218 [5]: 0.25 µg/mL (≈ 0.295 µM)

CCC1OC(=O)C(C)C(=O)C(C)C(OC2OC(C)CC(N(C)C)C2O)C(C)(OC)CC(C)C(=O)C(C)C2N(C3CN(S(=O)(=O)c4ccc(-n5cccn5)nc4)C3)C(=O)OC12C (centres unmarked) [Example 3.16, 3-descladinosyl-11,12-dideoxy-6-O-methyl-3-oxo-12,11-(oxycarbonyl-(1-(6-(1H-pyrazol-1-yl)pyridine-3-sulfonyl)-azetidin-3-yl)-imino)-erythromycin A]
MIC S. pyogenes 1079 [1]: 1 µg/mL (≈ 1.14 µM)
MIC S. pneumo. 1016 [2]: <0.06 µg/mL
MIC S. pneumo. 1095 [3]: <0.06 µg/mL
MIC S. pneumo. 1175 [4]: <0.06 µg/mL
MIC H. influenzae 1218 [5]: 0.5 µg/mL (≈ 0.571 µM)

CCC1OC(=O)C(C)C(=O)C(C)C(OC2OC(C)CC(N(C)C)C2O)C(C)(OC)CC(C)C(=O)C(C)C2N(C3CN(S(=O)(=O)c4cnc5ncccn45)C3)C(=O)OC12C (centres unmarked) [Example 3.17, 3-descladinosyl-11,12-dideoxy-6-O-methyl-3-oxo-12,11-(oxycarbonyl-(1-(imidazo[1,2-a]pyrimidine-3-sulfonyl)-azetidin-3-yl)-imino)-erythromycin A]
MIC S. pyogenes 1079 [1]: 4 µg/mL (≈ 4.71 µM)
MIC S. pneumo. 1016 [2]: <0.06 µg/mL
MIC S. pneumo. 1095 [3]: <0.06 µg/mL
MIC S. pneumo. 1175 [4]: 0.12 µg/mL (≈ 0.141 µM)
MIC H. influenzae 1218 [5]: 0.5 µg/mL (≈ 0.589 µM)

CCC1OC(=O)C(C)C(=O)C(C)C(OC2OC(C)CC(N(C)C)C2O)C(C)(OC)CC(C)C(=O)C(C)C2N(C3CN(S(=O)(=O)c4ccccc4C#N)C3)C(=O)OC12C (centres unmarked) [Example 3.18, 3-descladinosyl-11,12-dideoxy-6-O-methyl-3-oxo-12,11-(oxycarbonyl-(1-(2-cyanobenzenesulfonyl)-azetidin-3-yl)-imino)-erythromycin A]
MIC S. pyogenes 1079 [1]: 2 µg/mL (≈ 2.4 µM)
MIC S. pneumo. 1016 [2]: <0.06 µg/mL
MIC S. pneumo. 1095 [3]: 1 µg/mL (≈ 1.2 µM)
MIC S. pneumo. 1175 [4]: <0.06 µg/mL
MIC H. influenzae 1218 [5]: 0.12 µg/mL (≈ 0.144 µM)

CCC1OC(=O)C(C)C(=O)C(C)C(OC2OC(C)CC(N(C)C)C2O)C(C)(OC)CC(C)C(=O)C(C)C2N(C3CN(S(=O)(=O)c4ncn5ccccc45)C3)C(=O)OC12C (centres unmarked) [Example 3.19, 3-descladinosyl-11,12-dideoxy-6-O-methyl-3-oxo-12,11-(oxycarbonyl-(1-(H-imidazo[1,5-a]pyridine-1-sulfonyl)-azetidin-3-yl)-imino)-erythromycin A]
MIC S. pyogenes 1079 [1]: 1 µg/mL (≈ 1.18 µM)
MIC S. pneumo. 1016 [2]: <0.06 µg/mL
MIC S. pneumo. 1095 [3]: <0.06 µg/mL
MIC S. pneumo. 1175 [4]: <0.06 µg/mL
MIC H. influenzae 1218 [5]: 0.25 µg/mL (≈ 0.295 µM)

CCC1OC(=O)C(C)C(=O)C(C)C(OC2OC(C)CC(N(C)C)C2O)C(C)(OC)CC(C)C(=O)C(C)C2N(C3CN(S(=O)(=O)c4ccc(-c5n[nH]c(=O)[nH]c5=O)cc4)C3)C(=O)OC12C (centres unmarked) [Example 3.20, 3-descladinosyl-11,12-dideoxy-6-O-methyl-3-oxo-12,11-(oxycarbonyl-(1-(4-(2,3,4,5-tetrahydro-3,5-dioxo-1,2,4-triazin-6-yl)benzenesulfonyl)-azetidin-3-yl)-imino)-erythromycin A]
MIC S. pyogenes 1079 [1]: 8 µg/mL (≈ 8.7 µM)
MIC S. pneumo. 1016 [2]: <0.06 µg/mL
MIC S. pneumo. 1095 [3]: <0.06 µg/mL
MIC S. pneumo. 1175 [4]: 2 µg/mL (≈ 2.18 µM)
MIC H. influenzae 1218 [5]: 0.5 µg/mL (≈ 0.544 µM)

CCC1OC(=O)C(C)C(=O)C(C)C(OC2OC(C)CC(N(C)C)C2O)C(C)(OC)CC(C)C(=O)C(C)C2N(C3CN(S(=O)(=O)c4cnn(-c5ccccn5)c4)C3)C(=O)OC12C (centres unmarked) [Example 3.21, 1-(pyridin-2-yl)-1H-pyrazole-4-sulfonyl]
MIC S. pyogenes 1079 [1]: >64.00 µg/mL
MIC S. pneumo. 1016 [2]: <0.06 µg/mL
MIC S. pneumo. 1095 [3]: <0.06 µg/mL
MIC S. pneumo. 1175 [4]: <0.06 µg/mL
MIC H. influenzae 1218 [5]: 1 µg/mL (≈ 1.14 µM)
